Assay results: article PMC10860144, “Exploring the Dispersion and Electrostatic Components in Arene–Arene Interactions between Ligands and G4 DNA to Develop G4-Ligands” (Journal of Medicinal Chemistry, 2024)

Tests used:
[1] = Intrinsic clearance in human microsomes; assay type: in vitro ADME; settings: read-out: Human mics: intrinsic clearance in human microsomes
Procedure: (§1) All compounds (2–11, 25–29) were screened for their logD and solubility at pH 7.4 and for their intrinsic clearance in rat hepatocytes and human microsomes (Table S2). […] Replacing the basic amine side chain to a methyl substituent in the quinazolines (25–29) still retained good solubility (134 to over 1000 μM) but increased clearance in both rat hepatocytes and human microsomes. The logD was low for compounds with a basic amine side chain (2–11) and increased slightly when the amine was replaced with a methyl (25–29). As expected, additional substituents also affected the logD with the chloro-substituents increasing logD the most.
(§2) a Intrinsic clearance in rat hepatocytes ((μL/min)/10^6 cells).b Intrinsic clearance in human microsomes (μL/min/mg). […]

[2] = target: Pu24T c-MYC G4 structure; assay: Kd for binding to the Pu24T c-MYC G4 structure (supplementary CSV); design: species or system human
Procedure: (§3) 5′-Cy5 labeled G4 DNAs for this study were purchased from Eurofins Genomics. Stock solutions were prepared in water at 100 μM concentration. The sequences used are listed in Supporting Information Table S1. The G4 DNA sequences were folded in KCl buffer (10 mM phosphate, 100 mM KCl, pH 7.4) by heating at 95 °C for 5 min and then cooling to room temperature. All the experiments were performed in 10 mM phosphate pH 7.4, 100 mM KCl, and 0.05% Tween20. The labeled DNA concentration is held constant at 25 nM, and ligand concentration is varied depending on ligands Kd (16 1:3 dilutions). The samples were loaded into standard MST graded glass capillaries and initial fluorescence intensity of the capillary was measured using Monolith NT.115 (Nano Temper, Germany) with 20% LED power. The change in fluorescence with ligand’s concentrations were plotted in Excel and fitted through nonlinear equation to obtain the binding constants.
The Supporting Information is available free of charge at https://pubs.acs.org/doi/10.1021/acs.jmedchem.3c02127. • Experimental procedures and data; assay data, computational results, and all cell data; NMR (^1H and ^13C) spectra for all compounds (with the exception of a few intermediates); and HPLC UV traces for the final compounds (PDF) • Molecular formula strings and Kd values for binding to the Pu24T c-MYC G4 structure (CSV)

[3] = logD at pH 7.4; assay type: physicochemical
Procedure: (§4) Physicochemical properties
(§5) The Physicochemical profiling (LogD, Solubility, Caco-2 cell permeability) was performed as previously
(§6) described.8 Cell viability was performed as described below.
(§7) Table S2. Pharmacokinetic Properties
(§8) Compound Structure logD, Solubility, Rat hepsa Human mics b

[4] = target: c-MYC Pu22 G4 DNA; assay: Microscale thermophoresis (MST), c-MYC Pu22 G4 DNA; assay type: binding, human; settings: Cy5-labeled c-MYC Pu22 G4 DNA 25 nM; pH 7.4, 100 mM KCl; read-out: apparent Kd (MST)
Procedure: To evaluate the apparent binding affinities (Kd) for the compound series, we next used microscale thermophoresis (MST) with fluorescently labeled c-MYC Pu22 G4 DNA (Table S1). Overall, the measured MST binding results for compounds 2–11 corresponded well with the results from the FRET assay (Figures 2B and S3).
as §3, with “constants. […]” for “constants.”
Microscale Thermophoresis (MST)
5'- Cy5 labelled G4 DNAs for this study were purchased from Eurofins Genomics. Stock solutions were prepared in water at […] concentration. The sequences used are listed in supplementary Table S1. The G4 DNA sequences were folded in KCl buffer (10 mM phosphate, 100 mM KCl, pH 7.4) by heating at 95 °C for 5 min and then cooling to room temperature. All the experiments were performed in 10 mM phosphate pH 7.4, 100 mM KCl, 0.05% Tween20. The labelled DNA concentration is held constant at 25 nM and ligand concentration is varied depending on ligands Kd (sixteen 1:3 dilutions). The samples were loaded into standard MST graded glass capillaries and initial fluorescence intensity of the capillary were measured using Monolith NT.115 (Nano Temper, Germany) with 20% LED power. The change in fluorescence with ligand's concentrations were plotted in Excel and fitted through non-linear equation to obtain the binding constants.
(1 picture or pasted object on this page, not shown here)

[5] = Solubility at pH 7.4; assay type: physicochemical
Procedure: as §4, §5, §6, §7, §8

[6] = Intrinsic clearance in rat hepatocytes; assay type: in vitro ADME
Procedure: as §1, §2

[7] = system: c-MYC Pu22 G4 DNA; assay: FRET melting assay, c-MYC Pu22 G4 DNA; assay type: binding, human; settings: c-MYC Pu22 G4 DNA; 5-40 equiv
Text: The synthesized compounds (2–11) were first analyzed using a Förster resonance energy transfer (FRET) assay (Figure 2A). This assay measures the compounds’ ability to affect the thermal stability of fluorescently labeled DNA, in this case, the c-MYC Pu22 G4 DNA (Table S1). […] The addition of one methyl group to the quinazoline core (3) provides almost twice as strong thermal stability compared to 2. The addition of a second methyl group (4) further increased stabilization, albeit modestly (by 0.5 °C). This slight increase between 3 and 4 could stem from the suboptimal positioning of the added methyl substituent in relation to the guanines on the G4 surface, compared to other positions on the quinazoline ring. […] Furthermore, the methyl-substituted (4) and the methoxy-substituted (6) display a similar G4 stabilization despite the strong electrostatic character of the methoxy substituent compared to the neutral methyl group, which further supports that these interactions are dispersion-driven. This conclusion is further supported by the fact that the replacement of the methoxy group in 6 with chlorine in 7 results in a very similar stabilization as 3, 4, and 6.
Synthetic labeled oligonucleotides for the FRET study were purchased from Eurofins Genomics. Stock solutions were prepared in MQ-water at 100 μM concentration. The sequences used are listed in Supporting Information Table S1. All the oligonucleotides except Pu22 were prefolded in 10 mM lithium cacodylate buffer (pH 7.4), with 10 mM KCl and 90 mM LiCl by heating for 10 min at 95 °C and then cooling in fridge for at least 1 h. Pu22 was folded in 10 mM lithium cacodylate buffer (pH 7.4), with 2 mM KCl and 98 mM LiCl.
The FRET occurs between two dyes (5′-FAM as donor and 3′-TAMRA as acceptor) linked at both extremities of a DNA oligonucleotide. When the oligonucleotides are folded into G4 structures, the donor and acceptor are in proximity, which results in an energy transfer from the donor to the acceptor. This process can be detected by a reduction in the fluorescence emission of the donor. Fluorescence emission of the donor is recovered when the temperature increment triggers the thermal denaturation of the G4 structure. The experiments were performed in a Bio-Rad CFX96 real-time PCR device at temperatures from 10 to 95 °C at 1.5 °C/m heating rate using a 492 nm excitation wavelength and a 516 nm detection wavelength in 96-well plates. […] The stabilization (ΔTm) is calculated from comparison of Tm of the fluorescently labeled oligonucleotide in the presence or absence of the ligand. […]
The fluorescence resonance energy transfer (FRET) occurs between two dyes (5'-FAM as donor and 3'- TAMRA as acceptor) linked at both extremities of a DNA oligonucleotide. […]

microsomal CLint [1]: 8 µL/min/mg
Kd [2]: > 10 µM
logD [3]: 1.4
Kd [4]: > 10 µM
solubility [5]: > 1000 µM
Rat heps: intrinsic clearance in rat hepatocytes [6]: 38 (μL/min)/106 cells
Compound: Cc1cc(NCCCN(C)C)nc(Nc2cnc3ccccc3n2)n1 [Compound 8, N4-(3-(Dimethylamino)propyl)-6-methyl-N2-(quinoxalin-2-yl)pyrimidine-2,4-diamine]
ability to stabilize the G4 structure (in words) [7]: almost no ability to stabilize the G4 structure
